Measurements as given in ChEMBL document CHEMBL1129313, “Oxidation chemistry of (-)-norepinephrine in the presence of L-cysteine” (J Med Chem, 1996).
The source made the active and inactive calls. The calls are words filed in the database; no cut-off is given here.

Legend:
Mus musculus [1] = test: In vivo toxic dose of injected compound at a dose of 5 to 100 ug at which 50% of mice died within 1 hr of treatment; assay type: ADME, organism-based
Mus musculus [2] = test: In vivo toxic dose of injected compound at a dose of 10 to 100 ug at which 50% of mice died within 1 hr of treatment; assay type: ADME, organism-based
Mus musculus [3] = test: In vivo behavioral response evoked when a dose of 100 microg injected into mice under light ether anesthesia; No response; assay type: functional, organism-based

| SMILES | Activity (Mus musculus [3]) | further results |
| --- | --- | --- |
| NCC(O)c1cc(O)c2c(c1)SCC(C(=O)O)N2 (stereo unspecified) | – | LD50 (Mus musculus [1]): 17.8 µg |
| NCC(O)c1ccc(O)c2c1SCC(C(=O)O)N2 (stereo unspecified) | – | LD50 (Mus musculus [2]): 23.4 µg |
| NCC(O)c1cc(SCC(N)C(=O)O)c(O)c(O)c1SCC(N)C(=O)O (stereo unspecified) | inactive | – |
| NCC(O)c1c2c(c(O)c(SCC(N)C(=O)O)c1SCC(N)C(=O)O)NC(C(=O)O)CS2 (stereo unspecified) | inactive | – |
| NCC(O)c1cc(SCC(N)C(=O)O)c(O)c2c1SCC(C(=O)O)N2 (stereo unspecified) | inactive | – |
| NCC(O)c1cc(O)c(O)c(SCC(N)C(=O)O)c1 (stereo unspecified) | inactive | – |
